Test results: US12565489B2, “Heterocyclyl pyrimidines and triazines as novel fungicides” (Bayer Aktiengesellschaft, priority 2020, dated 2026)
Like-named read-outs stand apart in the source and are kept apart here.

Assay: Measurement of Log P values by HPLC on reversed phase columns (EEC directive 79/831 Annex V.A8)
Assay type: physicochemical
Description: Measurement of Log P values as provided herein was performed according to EEC directive 79/831 Annex V.A8 by HPLC (High Performance Liquid Chromatography) on reversed phase columns with the following methods: • ^[a] Log P value is determined by measurement of LC-UV, in an acidic range, with 0.1% formic acid in water and acetonitrile as eluent (linear gradient from 10% acetonitrile to 95% acetonitrile). • ^[b] Log P value is determined by measurement of LC-UV, in a neutral range, with 0.001 molar ammonium acetate solution in water and acetonitrile as eluent (linear gradient from 10% acetonitrile to 95% acetonitrile). • ^[c] Log P value is determined by measurement of LC-UV, in an acidic range, with 0.1% phosphoric acid and acetonitrile as eluent (linear gradient from 10% acetonitrile to 95% acetonitrile).
If more than one Log P value is available within the same method, all the values are given and separated by “+”.
Calibration was done with straight-chain alkan2-ones (with 3 to 16 carbon atoms) with known Log P values (measurement of Log P values using retention times with linear interpolation between successive alkanones). Lambda-max-values were determined using UV-spectra from 200 nm to 400 nm and the peak values of the chromatographic signals

[1] = method [a]: LC-UV, acidic range, 0.1% formic acid in water and acetonitrile as eluent, read-out: LogP

| SMILES | chromatographic logP (LogP) | further results |
| --- | --- | --- |
| Cc1ccc(C[C@H](CCl)NC(=NO)c2nc(C)ncc2Oc2cccc(Cl)c2F)c(Cl)c1 (racemic) [Compound 11-06] | 4.16 |  |
| CSc1ncc(Br)c(C(=O)N[C@@H](CON)Cc2ccc(C)cc2Cl)n1 (racemic) [Compound 4-03] | 2.58 |  |
| Cc1ncc(Oc2cccc(C(F)(F)F)c2)c(C(=O)N[C@@H](CCl)Cc2ccc(Br)cc2C)n1 (racemic) [Compound 10-06] | 4.86 |  |
| C#Cc1cccc(Oc2cnc(C)nc2C(=O)O)c1 [Compound 1-05] | 1.77 |  |
| CSc1ncc(Br)c(C(=O)N[C@@H](CON2C(=O)c3ccccc3C2=O)Cc2ccc(C)cc2Cl)n1 (racemic) [Compound 3-03] | 4.62 |  |
| Cc1ncc(Oc2cccc(Cl)c2)c(C(N)=NO[C@H](F)C(=O)c2ccc(Cl)cc2)n1 (racemic) [Compound 19-04] | 3.4 |  |
| Cc1ccc(C[C@H](CCl)NC(=NO)c2nc(C)ncc2Oc2cccc(C(F)(F)F)c2)c(Cl)c1 (racemic) [Compound 11-02] | 4.31 |  |
| COc1ccc(C[C@H](CCl)NC(=NO)c2nc(C)ncc2Oc2cccc(C(F)(F)F)c2)c(Cl)c1 (racemic) [Compound 11-01] | 4.01 |  |
| C#Cc1cccc(Oc2cnc(C)nc2C(=O)N[C@@H](CON2C(=O)c3ccccc3C2=O)Cc2ccc(C)cc2C)c1 (racemic) [Compound 3-02] | 4.41 |  |
| Cc1ccc(C[C@H](CCl)NC(=O)c2nc(C)ncc2Oc2cccc(Cl)c2F)c(Cl)c1 (racemic) [Compound 10-05] | 4.7 |  |
| CSc1ncc(Br)c(C2=NOC[C@@H](Cc3ccc(C)cc3Cl)N2)n1 (racemic) [Compound 7-03] | 4.08 |  |
| Cc1ncc(Oc2cccc(C(F)(F)F)c2)c(C(=NO)N[C@@H](CCl)Cc2ccc(SC(F)(F)F)cc2)n1 (racemic) [Compound 11-10] | 4.66 |  |
| Cc1ncc(Oc2cccc(Cl)c2)c(C#N)n1 [Compound 16-01] | 3.07 |  |
| Cc1ccc(C[C@H](N)CCN)c(C)c1 (racemic) [Compound 9-06] | 0.23 |  |
| Cc1ncc(Oc2cccc(C(F)(F)F)c2)c(C(=O)N[C@@H](CCl)Cc2ccc(OC(F)F)cc2Cl)n1 (racemic) [Compound 10-08] | 4.51 |  |
| Cc1ccc(CC(CON)NC(=O)c2nc(C3CC3)ncc2Oc2cccc(C(F)(F)F)c2)c(C)c1 (racemic) [Compound 4-01, N-[(2RS)-1-(aminooxy)-3-(2,4-dimethylphenyl)propan-2-yl]-2-cyclopropyl-5-[3-(trifluoromethyl)phenoxy]pyrimidine-4-carboxamide] | 3.7 |  |
| COc1ccc(C[C@H](CCl)NC(=O)c2nc(C)ncc2Oc2cccc(C(F)(F)F)c2)c(Cl)c1 (racemic) [Compound 10-01] | 4.47 |  |
| Cc1ncc(Oc2cccc(C(F)(F)F)c2)c(C(=O)N[C@@H](CCl)Cc2ccc(C(F)F)cc2Cl)n1 (racemic) [Compound 10-10] | 4.37 |  |
| Cc1ncc(Oc2cccc(Cl)c2F)c(C(=O)O)n1 [Compound 1-08] | 1.91 |  |
| CSc1ncc(Br)c(C(=O)N[C@@H](CON2C(=O)c3ccccc3C2=O)Cc2ccc(C)cc2C)n1 (racemic) [Compound 6a-01] | 4.55 |  |
| Cc1ccc(C[C@H](N)CC(N)=O)c(C)c1 (racemic) [Compound 9-04] | 0.69 |  |
| Cc1ncc(Oc2cccc(Cl)c2)c(C(N)=NOC(C)(C)C(=O)c2ccc(F)cc2F)n1 [Compound 19-03] | 3.41 |  |
| O=C(O)c1nc(C2CC2)ncc1Oc1cccc(C(F)(F)F)c1 [Compound 1-02, 2-cyclopropyl-5-[3-(trifluoromethyl)phenoxy]pyrimidine-4-carboxylic acid] | 2.49 |  |
| C=Cc1cccc(Oc2cnc(C)nc2C(=O)O)c1 [Compound 1-06] | 1.87 |  |
| Cc1ccc(CC2CON=C(c3nc(C)ncc3Br)N2)c(C)c1 (racemic) [Compound 7-01, (5RS)-3-(5-bromo-2-methylpyrimidin-4-yl)-5-(2,4-dimethylbenzyl)-5,6-dihydro-4H-1,2,4-oxadiazine] | 3.05 |  |
| Cc1ncc(Oc2cccc(Cl)c2)c(C2=NOC(C)(C)[C@@H](c3ccc(F)cc3F)N2)n1 (racemic) [Compound I-035] | 3.84 |  |
| Cc1ccc([C@H](N)CC(N)=O)c(C)c1 (racemic) [Compound 9-05] | 0.55 |  |
| Cc1ccc(C[C@H](CCl)NC(=NO)c2nc(C)ncc2Oc2cccc(C3CC3)c2F)c(C)c1 (racemic) [Compound 11-04] | 4.51 |  |

| SMILES | chromatographic logP (LogP) | further results |
| --- | --- | --- |
| COC(=N)c1nc(C)ncc1Oc1cccc(Cl)c1 [Compound 20-01, methyl 5-(3-chlorophenoxy)-2-methyl-pyrimidine-4-carboximidate] | 2.19 |  |
| Cc1ncc(Oc2cccc(Cl)c2)c(C(N)=NOCC(=O)c2ccc3c(c2)CCC3)n1 [Compound 19-01] | 4.15 |  |
| Cc1ncc(Oc2cccc(Cl)c2)c(C(N)=NO)n1 [Compound 17-01, 5-(3-chlorophenoxy)-N′-hydroxy-2-methyl-pyrimidine-4-carboxamidine] | 1.66 |  |
| Cc1ccc(C[C@H](N)CON2C(=O)c3ccccc3C2=O)c(C)c1 (racemic) [Compound 2-01] |  | chromatographic logP (reversed phase HPLC column, method [a]: LC-UV, acidic range, 0.1% formic acid in water and acetonitrile as eluent, read-out: LogP): 1.55 |
| Cc1ncc(Oc2cccc(C3CC3)c2F)c(C(=O)O)n1 [Compound 1-07] | 2.2 |  |
| Cc1ccc(C[C@H](CCl)NC(=O)c2nc(C)ncc2Oc2cccc(C3CC3)c2F)c(C)c1 (racemic) [Compound 10-11] | 4.86 |  |
| Cc1ncc(Oc2cccc(Cl)c2)c(C(N)=NOCC(=O)c2ccc3c(c2)OCCO3)n1 [Compound 19-02] | 3.12 |  |
| Cc1ccc(C[C@H](CCl)NC(=NO)c2nc(C)ncc2Oc2cccc(Cl)c2)c(Cl)c1 (racemic) [Compound 11-05] | 4.28 |  |
| Cc1ncc(Oc2cccc(Br)c2)c(C(=O)O)n1 [Compound 1-04] | 2.15 |  |
| Cc1ccc(C[C@H](CCl)NC(=O)c2nc(C)ncc2Oc2cccc(Cl)c2)c(Cl)c1 (racemic) [Compound 10-04] | 4.61 |  |
| Cc1ncc(Oc2cccc(C(F)(F)F)c2)c(C2=NOCC(Cc3ccc(C#C[Si](C)(C)C)cc3C)N2)n1 (racemic) [Compound I-010, trimethyl-[2-[3-methyl-4-[[(5RS)-3-[2-methyl-5-[3-(trifluoro-methyl)phenoxy]pyrimidin-4-yl]-5,6-dihydro-4H-1,2,4-oxadiazin-5-yl]methyl]phenyl]ethynyl]silane] |  | chromatographic logP [1]: 5.79 |
| CSc1ncc(Br)c(C2=NOC[C@@H](Cc3ccc(C)cc3C)N2)n1 (racemic) [Compound 7-02] | 4.05 |  |
| Cc1ncc(Oc2cccc(C(F)(F)F)c2)c(C(=NO)N[C@@H](CCl)Cc2csc(C(F)(F)F)c2)n1 (racemic) [Compound 11-08] | 4.12 |  |
| Cc1ncc(Oc2cccc(C(F)(F)F)c2)c(C(=NO)N[C@@H](CCl)Cc2ccc(C(F)F)cc2Cl)n1 (racemic) [Compound 11-11] | 4.02 |  |
| Cc1ncc(Oc2cccc(Cl)c2)c(C(=O)O)n1 [Compound 1-03] | 2 |  |
| Cc1ncc(Oc2cccc(C(F)(F)F)c2)c(C(=NO)N[C@@H](CCl)Cc2ccc(OC(F)F)cc2Cl)n1 (racemic) [Compound 11-09] | 4.08 |  |
| Cc1ccc(C[C@H](CCl)NC(=NO)c2nc(C)ncc2Oc2cccc(C3CC3)c2F)c(Cl)c1 (racemic) [Compound 11-03] | 4.62 |  |
| Cc1ccc(CC(CCl)NC(=NO)c2nc(C)ncc2Br)c(C)c1 (racemic) [Compound 13-01, 5-bromo-N-[(2RS)-1-chloro-3-(2,4-dimethylphenyl)propan-2-yl]-N′-hydroxy-2-methylpyrimidine-4-carboximidamide] | 3.26 |  |
| Cc1ccc(C[C@H](CCl)NC(=O)c2nc(C)ncc2Oc2cccc(C(F)(F)F)c2)c(Cl)c1 (racemic) [Compound 10-02] | 4.74 |  |
| Cc1ncc(Oc2cccc(C(F)(F)F)c2)c(C(=O)N[C@@H](CCl)Cc2csc(C(F)(F)F)c2)n1 (racemic) [Compound 10-07] | 4.55 |  |
| N[C@H](CCl)Cc1ccc(SC(F)(F)F)cc1 (racemic) [Compound 9-02] |  | chromatographic logP [1]: 1.68 |
| Cc1ccc(CC(CON2C(=O)c3ccccc3C2=O)NC(=O)c2nc(C3CC3)ncc2Oc2cccc(C(F)(F)F)c2)c(C)c1 (racemic) [Compound 3-01, 2-cyclopropyl-N-{(2RS)-1-(2,4-dimethylphenyl)-3-[(1,3-dioxo-1,3-dihydro-2H-isoindol-2-yl)oxy]propan-2-yl}-5-[3-(trifluoromethyl)phenoxy]pyrimidine-4-carboxamide] | 5.4 |  |
| CSc1ncc(Br)c(C(=O)N[C@@H](CON)Cc2ccc(C)cc2C)n1 (racemic) [Compound 6b-01] | 2.49 |  |
| Cc1ccc(C[C@H](CCl)NC(=O)c2nc(C)ncc2Oc2cccc(C3CC3)c2F)c(Cl)c1 (racemic) [Compound 10-03] | 4.93 |  |
| C#Cc1cccc(Oc2cnc(C)nc2C(=O)N[C@@H](CON)Cc2ccc(C)cc2C)c1 (racemic) [Compound 4-02] | 2.53 |  |
| Cc1ncc(Oc2cccc(C(F)(F)F)c2)c(C(=O)N[C@@H](CCl)Cc2ccc(SC(F)(F)F)cc2)n1 (racemic) [Compound 10-09] | 4.92 |  |
| N[C@H](CCl)Cc1csc(C(F)(F)F)c1 (racemic) [Compound 9-03] |  | chromatographic logP [1]: 1.29 |
